Consider one molecule from publication PMC9693223 (Molecules, 2022).

For one assay, the system named is Leishmania major. Details: method as in PMID 28453984. Particulars: ref [36]; read-out: EC50 against Leishmania major; cited from earlier work.
The test system of another assay is L. mexicana. Also on record: method as in PMID 28453984. Particulars: ref [36]; read-out: EC50 against L. mexicana; cited from earlier work.
The test system of assay [1] is L. mexicana Cas9 promastigotes. As to the kind of experiment: Alamar blue drug sensitivity assay, L. mexicana Cas9 promastigotes. Format: cell-based, Leishmania mexicana. The settings on record: Leishmania mexicana, 120 h, 72 h + 48 h resazurin, at least 3 independent determinations, read-out: EC50 (µM) AVG ± SEM, Cas9. Summed up:
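Promastigotes cultured in HOMEM with 10% FBS at 25 °C were added as a 2 × 10^6 cells mL^−1 culture to 23-point compound dilutions. After 72 h at 25 °C, resazurin was added for a further 48 h, and fluorescence was read at ex 544/em 620 nm. EC50 came from a variable-slope sigmoid fit (3–4 independent experiments).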

Assay [2] has as its system T. cruzi epimastigotes (CL Brener strain). Put plainly: In vitro inhibition of proliferation of T. cruzi epimastigotes. It is filed as cell-based, Trypanosoma cruzi. Particulars: Trypanosoma cruzi; cell densities at the 5th day of proliferation, four independent experiments. As for the experimental part: (§1) Trypomastigotes were obtained by infecting CHO-K1 cells. CHO-K1 cells were cultivated in RPMI-1640 medium supplemented with 10% heat-inactivated fetal calf serum (FCS), 0.15% (w/v) […], 100 µg mL^−1 penicillin and 130 µg mL^−1 streptomycin and incubated at 37 °C in a humidified atmosphere containing 5% CO2. CHO-K1 cells were initially incubated with metacyclic trypomastigotes obtained by in vitro differentiation of epimastigotes as previously described (multiplicity of infection: 50 parasites per cell) for 4 h. After washing out the non-internalized parasites, the cells were incubated overnight in RPMI medium supplemented with 10% FCS at 37 °C and then maintained at 33 °C in a humidified atmosphere containing 5% CO2 as previously reported. Infected cells were maintained at 33 °C in the presence of 10% FCS. Infected cell-derived trypomastigotes started to burst into the culture medium at the 5th day post-infection. Trypomastigotes collected at day 5 or 6 post infection were used for the viability assays.
The density of exponentially proliferating epimastigotes for each assay was adjusted to 2.0 × 10^6 parasites mL^−1, transferred into 96-well plates (200 μL/well) and incubated with different concentrations of the compounds 5-F-2′-deoxyuridine, 5-F-uracil, 5-F-uridine or benznidazole. A combination of 60 μM rotenone and 0.5 μM antimycin (RA) was used as a positive control for proliferation inhibition (positive control), as previously described. […] The epimastigote proliferation was measured as previously reported, by reading the optical density (OD) at 620 nm every 24 h for 9 days (which collects readings through the exponential and stationary phases). […] The half-maximal inhibitory concentrations (IC50) were determined during the exponential growth phase (fifth day) by adjusting a sigmoidal dose-response function to experimentally obtained data using GraphPad Prism 8. The compounds were assessed in quadruplicate in each experiment, and the results correspond to four independent experiments.

Another assay concerns T. cruzi trypomastigotes. Put plainly: Effect on cell derived trypomastigotes (percent motile parasites). Format: cell-based. Particulars: Trypanosoma cruzi, 24 h incubation, percent of motile parasites. As to the method:
as §1
To measure the effect of compounds, cell derived trypomastigotes were collected from the extracellular medium at the fifth or sixth day after infection and counted in a Neubauer chamber. […] After incubation the trypanocidal effect was assessed by counting the percent of motile parasites in a Neubauer chamber. […]

For assay [3], the system named is L. mexicana Cas9^ΔNT1 promastigotes. Put plainly: Alamar blue drug sensitivity assay, L. mexicana Cas9^ΔNT1 promastigotes. It is filed as cell-based, Leishmania mexicana. Particulars: EC50 Cas9^ΔNT1 relative to L. mexicana Cas9. From the text: (§2) We used L. mexicana promastigotes of the Cas9 strain developed by Beneke at al. to generate the ΔNT1 strain, and from there the Cas9^ΔNT1+TcrNT2 (see below); The original Cas9 strain was generously donated by Prof. Eva Gluenz (University of Bern, Switzerland). All strains in standard HOMEM (GIBCO, Life Technologies, Paisley, UK) supplemented with 10% heat-inactivated fetal bovine serum (FBS; PAA Laboratories, Linz, Austria) and 1% of a penicillin–streptomycin solution (10,000 U mL^−1 each; Life Technologies) at 25 °C, as described.
(§3) The Alamar blue assay (resazurin sodium salt) was used to determine the drug sensitivity of the L. mexicana promastigotes in vitro. The assay is based on the reduction of resazurin sodium salt (blue and non-fluorescent) to resorufin (pink color and fluorescent) by live cells. HOMEM medium with 10% FBS (100 μL) was added to all wells of a white 96-well plate apart from the first well. 200 μL of a known concentration of test compounds was diluted in HOMEM medium and placed in the first well. Compounds were tested in one plate and every compound was diluted over two rows (23 concentrations), leaving the last well of every dilution as a negative control having 100 μL HOMEM medium. Next, 100 μL of L. mexicana culture at a density of 2 × 10^6 cells mL^−1 was added into every well in the plate and incubated for 72 h at a temperature of 25 °C after which resazurin sodium salt (Sigma) (20 μL of a solution of 12.5 mg in 100 mL PBS) was added and the plate was incubated under the same conditions for a further 48 h. Fluorescence was measured in a FLUOstar OPTIMA plate reader (BMG Labtech, Germany), at a wavelength of 544 nm for excitation and 620 nm for emission. The EC50 values and fluorescence data were determined and plotted by the GraphPad Prism 8 Software using an equation for a sigmoid curve with variable slope. Pentamidine was used as positive control and every experiment was performed 3–4 times independently.

The test system of assay [4] is L. mexicana Cas9^ΔNT1+TcrNT2 promastigotes. As to the kind of experiment: Alamar blue drug sensitivity assay, L. mexicana Cas9^ΔNT1+TcrNT2 promastigotes. Format: cell-based, Leishmania mexicana. Particulars: Cas9^ΔNT1+TcrNT2 in comparison to L. mexicana Cas9^ΔNT1.
From the text: as §2, §3

The test system of assay [5] is bloodstream form T. brucei. Also on record: method as in PMID 23188714, PMID 23505454. The settings on record: ref [47],[54]; read-out: EC50 against bloodstream form T. brucei; cited from earlier work.

Regarding `O=c1[nH]c(=O)n([C@H]2C[C@H](O)[C@@H](CO)O2)cc1F` [5-F-2′-dUrd, 5-F-2′-deoxyuridine], the EC50 was 1400 nM in the assay on Leishmania major, 1700 nM in the assay with L. mexicana, 2.19 ± 0.11 µM in assay [1] and 5200 nM in assay [5]. The IC50 in assay [2] was 16800 ± 10 nM. The same molecule displayed an inhibition at 31 µM in the assay on T. cruzi trypomastigotes of about 30%. Also, the “RF vs. Cas9 (resistance factor)” value in assay [3] is given as 26.6. Besides, in assay [4], the “RF vs. ΔNT1 (resistance factor)” value was 14.8.
